In ChEMBL document CHEMBL1275465, “Plasmid-mediated QnrS2 determinant from a clinical Aeromonas veronii isolate” (2008):
≈ marks a conversion by molar mass, not a printed value.

How the values were obtained:
Type in all cases: functional
Escherichia coli [1] = test: Antimicrobial activity against Escherichia coli J53 by Etest
Aeromonas veronii [2] = test: Antimicrobial activity against QnrS2-negative Aeromonas veronii CECT 4258 harboring GyrA Ser83 and ParC Ser80 mutant gene by Etest
Aeromonas veronii [3] = test: Antimicrobial activity against QnrS2-positive Aeromonas veronii A272 harboring GyrA Ile83 and ParC Ile80 mutant gene by Etest
Aeromonas veronii [4] = test: Antimicrobial activity against QnrS2-negative Aeromonas veronii CECT 4260 harboring GyrA Ser83 and ParC Ser80 mutant gene by Etest
Escherichia coli [5] = test: Antimicrobial activity against Escherichia coli J53 harboring QnrS2 and GyrA Ile83 and ParC Ile80 mutant gene by Etest

Structure (SMILES) | MIC (Escherichia coli [1]) [µg/mL] | MIC (Aeromonas veronii [2]) [µg/mL] | MIC (Aeromonas veronii [3]) [µg/mL] | MIC (Aeromonas veronii [4]) [µg/mL] | MIC (Escherichia coli [5]) [µg/mL]
O=C(O)c1cn(C2CC2)c2cc(N3CCNCC3)c(F)cc2c1=O [CIPROFLOXACIN] | 0.023 (≈ 0.0694 µM) | < 0.02 | 8 (≈ 24.1 µM) | < 0.02 | –
CCn1cc(C(=O)O)c(=O)c2ccc(C)nc21 [NALIDIXIC ACID] | 4 (≈ 17.2 µM) | < 0.25 | > 256 | < 0.25 | > 256
CCn1cc(C(=O)O)c(=O)c2cc(F)c(N3CCNCC3)cc21 [NORFLOXACIN] | 0.19 (≈ 0.595 µM) | < 0.02 | 12 (≈ 37.6 µM) | < 0.02 | 2 (≈ 6.26 µM)
